The source of these data is ChEMBL document CHEMBL5034015, “Structure-Based Optimization of 3-Phenyl-N-(2-(3-phenylureido)ethyl)thiophene-2-sulfonamide Derivatives as Selective Mcl-1 Inhibitors” (J Med Chem, 2021).

The target of assay [1] is Apoptosis regulator Bcl-2 (Homo sapiens, UniProt P10415). Description: Binding affinity to full length human Bcl-2 expressed in Escherichia coli BL21 (DE3) at up to 100 uM preincubated for 30 mins followed by 5-FAM-QEDIIIINIARHLAQVGDSMD-RSIPPG tracer addition and measured after 20 mins by fluorescence polarization assay. Conditions: dose microM <=100, time 50.0 min. (In general: In fluorescence polarisation assays a small probe gives low polarisation when free and higher when bound to something large.)

Another assay relates to HL-60. Description: cells. Conditions: Homo sapiens, HL-60, 48 h.
The test system of a further assay is HEK-293T. Description: Cytotoxicity against HEK293T cells assessed as reduction in cell viability incubated for 48 hrs by CCK8 assay. Conditions: Homo sapiens.
For the next assay, the system named is HeLa. Description: cells. Conditions: Homo sapiens, 48 h.
Another assay deals with RS4-11. Description: cells. Particulars: Homo sapiens, RS4-11, 48 h.
Another assay deals with Bcl-2-like protein 1 (Homo sapiens, UniProt Q07817). As to the kind of experiment: Binding affinity to full length human Bcl-xl expressed in Escherichia coli BL21 (DE3) at up to 100 uM preincubated for 30 mins followed by 5-FAM-QEDIIIINIARHLAQVGDSMD-RSIPPG tracer addition and measured after 20 mins by fluorescence polarization assay. Conditions: dose microM <=100, time 50.0 min.

Assay [2] has as its target T1, Induced myeloid leukemia cell differentiation protein Mcl-1 (Homo sapiens, UniProt Q07820). As to the kind of experiment: Binding affinity to full length human MCL1 expressed in Escherichia coli BL21 (DE3) assessed as inhibition constant preincubated for 30 mins followed by 5-FAM-QEDIIIINIARHLAQVGDSMD-RSIPPG tracer addition and measured after 20 mins by fluorescence polarization assay.

Assay [3] addresses T1, Induced myeloid leukemia cell differentiation protein Mcl-1. As to the kind of experiment: Binding affinity to full length human MCL1 expressed in Escherichia coli BL21 (DE3) at up to 100 uM preincubated for 30 mins followed by 5-FAM-QEDIIIINIARHLAQVGDSMD-RSIPPG tracer addition and measured after 20 mins by fluorescence polarization assay. Particulars: dose microM <=100, time 50.0 min.

Molecules are shown by their SMILES. pIC50, pKi: −log10 of the molar value. Active and inactive are the calls of the source. Where only a bound is given, the exact number is not on record here.

T1 sequence (Q07820 whole entry): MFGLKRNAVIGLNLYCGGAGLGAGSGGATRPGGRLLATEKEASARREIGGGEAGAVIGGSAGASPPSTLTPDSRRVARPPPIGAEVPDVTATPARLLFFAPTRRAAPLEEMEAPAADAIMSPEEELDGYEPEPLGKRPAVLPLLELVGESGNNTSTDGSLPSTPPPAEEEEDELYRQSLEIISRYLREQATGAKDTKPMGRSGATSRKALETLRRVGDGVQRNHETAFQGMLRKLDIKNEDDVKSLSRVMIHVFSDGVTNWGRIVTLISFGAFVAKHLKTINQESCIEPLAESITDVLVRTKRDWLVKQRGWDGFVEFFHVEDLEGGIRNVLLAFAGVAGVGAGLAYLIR
Bcl-2-like protein 1, sequence (Q07817 whole entry): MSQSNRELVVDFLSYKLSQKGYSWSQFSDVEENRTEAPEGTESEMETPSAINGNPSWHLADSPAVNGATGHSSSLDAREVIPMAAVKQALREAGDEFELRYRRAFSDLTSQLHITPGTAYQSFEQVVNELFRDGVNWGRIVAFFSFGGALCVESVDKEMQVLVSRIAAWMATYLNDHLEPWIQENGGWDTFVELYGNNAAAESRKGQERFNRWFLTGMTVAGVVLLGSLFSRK
Apoptosis regulator Bcl-2, sequence (P10415 whole entry): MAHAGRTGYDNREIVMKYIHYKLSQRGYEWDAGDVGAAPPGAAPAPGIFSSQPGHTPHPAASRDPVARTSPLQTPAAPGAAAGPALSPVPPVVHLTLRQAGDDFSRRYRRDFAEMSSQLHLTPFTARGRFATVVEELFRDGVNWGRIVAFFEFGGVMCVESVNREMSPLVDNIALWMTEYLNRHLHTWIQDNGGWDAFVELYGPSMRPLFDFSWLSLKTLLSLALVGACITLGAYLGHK
Description for HL-60: Cytotoxicity against human HL-60 cells assessed as inhibition of cell growth incubated for 48 hrs by CCK8 assay
Description for HeLa: Cytotoxicity against human HeLa cells assessed as inhibition of cell growth incubated for 48 hrs by CCK8 assay
Description for RS4-11: Cytotoxicity against human RS4-11 cells assessed as inhibition of cell growth incubated for 48 hrs by CCK8 assay

Usually pIC50 stands for the IC50 on a negative log10 scale, so that one unit is a factor of ten. A word on the pKi: it is the Ki on a negative log10 scale, so that one unit is a factor of ten. On to `O=S(=O)(NCCNC(=S)Nc1ccc(Cl)cc1)c1ccc(-c2ccccc2OCc2ccccc2)s1`, for which the result (in assay [1]; on Bcl-2-like protein 1) was inactive. Also, the negative logarithm of the IC50 (pIC50) was less than 4.30 in the assay on HL-60, 4.92 in the assay on HEK-293T, 5.15 in the assay with HeLa and less than 4.30 in the assay on RS4-11. The pKi in assay [2] was 5.37.
Regarding `O=C(NCCNS(=O)(=O)c1ccc(-c2ccccc2Oc2ccc([N+](=O)[O-])c([N+](=O)[O-])c2)s1)Nc1ccc(Cl)cc1`, the result (in assay [1]; on Bcl-2-like protein 1) was inactive. In addition, the negative logarithm of the IC50 (pIC50) with HL-60 was 5.09; with HEK-293T it was less than 4.70; in the assay with HeLa, less than 4.70; in the assay with RS4-11 it was 5.17. In assay [2], the pKi was 5.23.
For the compound `COc1cccc(NC(=S)NCCNS(=O)(=O)c2sccc2-c2ccc(C)cc2Oc2ccc(O)c(O)c2)c1`, the outcome (in assay [1]; on Bcl-2-like protein 1) was inactive. Also, the pIC50 in the assay with HL-60 was less than 4.30; in the assay on HEK-293T, less than 4.30; in the assay on HeLa it was less than 4.30; in the assay on RS4-11, less than 4.70. Also, the negative logarithm of the Ki (pKi) in assay [2] was 5.22.
Regarding `COc1cccc(NC(=O)NCCNS(=O)(=O)c2ccc(-c3ccccc3OCc3ccccc3)s2)c1`, the result (in assay [1]; on Bcl-2-like protein 1) was inactive. Further, the pIC50 with HL-60 was 5.77; in the assay on HEK-293T, less than 4.70; in the assay with HeLa it was less than 4.30; with RS4-11 it was less than 4.70. Further, the pKi in assay [2] was 4.96.
`COc1cccc(NC(=S)NCCNS(=O)(=O)c2ccc(-c3ccccc3Oc3ccc([N+](=O)[O-])cc3)s2)c1`: the result (in assay [1]; at Bcl-2-like protein 1) was inactive. Besides, the pIC50 is less than 4.30 in the assay with HL-60, less than 4.70 in the assay with HEK-293T, less than 4.30 in the assay with HeLa and less than 4.30 in the assay with RS4-11. Further, in assay [2], the pKi was 4.89.
`Cc1ccc(-c2ccsc2S(=O)(=O)NCCNC(=S)Nc2cc(C(F)(F)F)cc(C(F)(F)F)c2)c(Oc2ccc(O)c(O)c2)c1`: the outcome (in assay [1]; at Bcl-2-like protein 1) was inactive. Moreover, the pIC50 with HL-60 was 5.49; in the assay with HEK-293T it was 5.10; in the assay on HeLa, 5.10; in the assay with RS4-11 it was 5.32. In assay [2], the pKi was 6.14.
For the compound `Cc1cc(C)cc(NC(=O)NCCNS(=O)(=O)c2ccc(-c3ccccc3Oc3ccc(N)cc3)s2)c1`, the result (in assay [1]; on Bcl-2-like protein 1) was inactive. In addition, the pIC50 with HL-60 was less than 4.30; in the assay on HEK-293T, less than 4.70; with HeLa, less than 4.70; in the assay on RS4-11, less than 4.70. The pKi in assay [2] was 5.80.
As to `Cc1ccc(-c2ccsc2S(=O)(=O)NCCNC(=S)Nc2ccc([N+](=O)[O-])cc2)c(Oc2ccc(O)c(O)c2)c1`, the outcome (in assay [1]; on Bcl-2-like protein 1) was inactive. Further, the pIC50 in the assay with HL-60 was 5.54; in the assay with HEK-293T, 5.09; in the assay on HeLa it was 5.17; in the assay on RS4-11, 5.29. In assay [2], the pKi was 5.82.
Consider `O=C(NCCNS(=O)(=O)c1ccc(-c2ccccc2OCc2ccccc2)s1)Nc1cc(C(F)(F)F)cc(C(F)(F)F)c1`, for which the outcome (in assay [1]; at Bcl-2-like protein 1; in assay [3]) was inactive. For the same compound, the pIC50 in the assay with HL-60 was 4.94; with HEK-293T it was less than 4.70; in the assay on HeLa it was 4.87; with RS4-11 it was less than 4.30.
For `Cc1cc(C)cc(NC(=O)NCCNS(=O)(=O)c2ccc(-c3ccccc3OCc3ccccc3)s2)c1`, the outcome (in assay [1]; at Bcl-2-like protein 1; in assay [3]) was inactive. Further, the negative logarithm of the IC50 (pIC50) in the assay with HL-60 is 5.66; in the assay with HEK-293T, less than 4.70; with HeLa, less than 4.30; with RS4-11, less than 4.30.
Turning to `O=C(NCCNS(=O)(=O)c1ccc(-c2ccccc2OCc2cccc(O)c2)s1)Nc1cc(C(F)(F)F)cc(C(F)(F)F)c1`, the result (in assay [1]; at Bcl-2-like protein 1; in assay [3]) was inactive. Further, the negative-log IC50 (pIC50) was 5.40 with HL-60, less than 4.70 in the assay with HEK-293T, 4.76 in the assay on HeLa and 5.52 in the assay on RS4-11.
Consider `CC(C)c1ccc(Oc2ccc(O)c(O)c2)c(-c2ccsc2S(=O)(=O)NCCNC(=O)Nc2cc(Cl)cc(Cl)c2)c1`, for which the outcome (in assay [1]; on Bcl-2-like protein 1) was inactive. The pIC50 was 5.19 in the assay with HL-60, less than 5.00 in the assay with HEK-293T, less than 4.30 in the assay on HeLa and 5.19 with RS4-11. For the same compound, in assay [2], the negative logarithm of the Ki (pKi) is 6.44.
`COc1ccc(Oc2ccc(C(C)C)cc2-c2ccsc2S(=O)(=O)NCCNC(=S)Nc2cc(C(F)(F)F)cc(C(F)(F)F)c2)cc1OC`: the outcome (in assay [1]; at Bcl-2-like protein 1) was inactive. The pIC50 in the assay with HL-60 was 5.16; in the assay on HEK-293T, 4.99; in the assay on HeLa it was 5.08; in the assay on RS4-11, 5.26. In assay [2], the negative-log Ki (pKi) was 4.92.
Consider `COc1ccc(Oc2ccc(C(C)C)cc2-c2ccsc2S(=O)(=O)NCCNC(=O)Nc2cc(C(F)(F)F)cc(C(F)(F)F)c2)cc1OC`, for which the outcome (in assay [1]; on Bcl-2-like protein 1; in assay [3]) was inactive. Further, the negative logarithm of the IC50 (pIC50) with HL-60 is 5.13; in the assay with HEK-293T, 4.92; in the assay on HeLa, 4.94; with RS4-11 it was 4.93.
`O=[N+]([O-])c1ccc(Oc2ccccc2-c2ccc(S(=O)(=O)NCCNC(=S)Nc3cc(C(F)(F)F)cc(C(F)(F)F)c3)s2)cc1`: the result (in assay [1]; at Bcl-2-like protein 1; in assay [3]) was inactive. For the same compound, the pIC50 in the assay on HL-60 is 5.14; in the assay on HEK-293T, 5.22; with HeLa it was 5.00; in the assay with RS4-11, 5.20.
In the case of `COc1ccc(Oc2ccc(C(C)C)cc2-c2ccsc2S(=O)(=O)NCCNC(=O)Nc2cc(Cl)cc(Cl)c2)cc1OC`, the outcome (in assay [1]; on Bcl-2-like protein 1; in assay [3]) was inactive. Also, the negative-log IC50 (pIC50) in the assay on HL-60 is 5.19; in the assay on HEK-293T, 4.92; in the assay on HeLa it was 4.94; with RS4-11, 5.05.
As for `COc1ccc(NC(=O)NCCNS(=O)(=O)c2sccc2-c2ccc(C)cc2Oc2ccc(O)c(O)c2)cc1`, the outcome (in assay [1]; on Bcl-2-like protein 1; in assay [3]) was inactive. The pIC50 is 5.21 in the assay with HL-60, less than 4.70 in the assay with HEK-293T, less than 4.70 in the assay on HeLa and 5.09 with RS4-11.
With `O=[N+]([O-])c1ccc(NC(=S)NCCNS(=O)(=O)c2ccc(-c3ccccc3O[C@H]3CC[C@H](O)CC3)s2)cc1`, the result (in assay [1]; at Bcl-2-like protein 1; in assay [3]) was inactive. Moreover, the negative-log IC50 (pIC50) is 4.94 in the assay with HL-60, 4.98 with HEK-293T, 5.27 in the assay on HeLa and 5.82 in the assay with RS4-11.
Turning to `O=C(NCCNS(=O)(=O)c1ccc(-c2ccccc2O[C@H]2CC[C@@H](O)CC2)s1)Nc1ccc([N+](=O)[O-])cc1`, the result (in assay [1]; at Bcl-2-like protein 1; in assay [3]) was inactive. In addition, the negative-log IC50 (pIC50) in the assay with HL-60 was less than 4.70; with HEK-293T it was 5.07; in the assay on HeLa, less than 4.70; with RS4-11, 4.91.
`O=[N+]([O-])c1ccc(Oc2ccccc2-c2ccc(S(=O)(=O)NCCNC(=S)Nc3cccc(Cl)c3)s2)cc1`: the outcome (in assay [1]; on Bcl-2-like protein 1; in assay [3]) was inactive. In addition, the negative logarithm of the IC50 (pIC50) with HL-60 is less than 4.30; with HEK-293T, 5.30; in the assay on HeLa, 5.34; in the assay with RS4-11 it was less than 4.30.
As to `Cc1ccc(-c2ccsc2S(=O)(=O)NCCNC(=O)Nc2cccc([N+](=O)[O-])c2)c(Oc2ccc(O)c(O)c2)c1`, the result (in assay [1]; at Bcl-2-like protein 1) was inactive. The pIC50 with HL-60 is 5.22; in the assay with HEK-293T, 5.17; in the assay on HeLa it was less than 4.70; in the assay with RS4-11 it was 5.04. The pKi in assay [2] was 4.89.
Turning to `COc1ccc(NC(=O)NCCNS(=O)(=O)c2ccc(-c3ccccc3Oc3ccc([N+](=O)[O-])cc3)s2)cc1`, the result (in assay [1]; on Bcl-2-like protein 1) was inactive. Moreover, the pIC50 in the assay with HL-60 is less than 4.30; with HEK-293T it was less than 4.70; in the assay on HeLa, less than 4.70; in the assay on RS4-11 it was less than 4.30. The pKi in assay [2] is 5.34.
